Patent US20150268219A1, “Method for Renal Transplantation” (Universite Paris Diderot Paris 7, priority 2014, published 2015)

What was measured:
Assay type in all cases: cell-based, C57BL/6 mice
[1] = tested on: bone marrow-derived macrophages (BMM); assay: Differentiation and TLR-agonist activation (CD86) of bone marrow-derived macrophages cultured with iron
Method: (§1) Bone Marrow derived macrophages (BMM) were prepared from the femur and tibias of C57BL/6 mice between 6 and 8 weeks of age. Bone marrow cells were cultured for 7-8 days at 37° C. and 5% CO2 in at 2×10^6 cells/ml in RPMI 1640 medium (Invitrogen) containing 10% FBS (v/v; Biowest), penicillin/streptomycin and 15% supernatant of L929 cells (v/v) as a source of M-CSF in the presence or in the absence of FeCl3-nitrilotriacetate (FeCl3-NTA; 10-60 μM as indicated). In some conditions, lipopolysaccharide (LPS) (150 ng/ml) (Sigma-Aldrich), peptidoglycan (PGN) (15 μg/ml), Poly-IC (50 μg/ml) (all from cayla-Invivogen, Toulouse, France) were added 12 hours before BBMs analysis on day 8.
Cells suspensions were prepared from cell culture or tissue and were incubated with anti-FcγR mAb 2.4G2 to block IgG receptors before cell staining for specific surface markers. Cells (1·10^6) were then stained at 4° C. in PBS containing 1% BSA with antibodies against mouse CD11b (M1/70, BioLegend), F4/80 (BM8, eBioscience), CD86 (GL-1, BioLegend), Ly6G (1A8, BD Biosciences), Ly6C (HK1.4, BioLegend). The presence of macrophages (CD11b^+F4/80^+Ly6G^− cells) in the peritoneum was analyzed by flow cytometry.

[2] = tested on: bone marrow-derived macrophages (BMM); assay: Cytokine production in culture supernatant of BMM stimulated with LPS; settings: LPS-Fe-BMM vs LPS-BMM
Method: as §1
Kidney tissues were homogenized in 300 μl of RIPA buffer supplemented with phosphatase and protease inhibitors cocktail (Sigma-Aldrich) for 30 s. Samples were cooled on ice for 30 min. Lysates were finally centrifuged at 10 000 g at 4° C. The cytokines IL-6, TNF-α, MCP-1, IL-10 and IL-12 were measured simultaneously by cytometric bead array (CBA) using mouse inflammation kit (according to the manufacturer's instruction (BD biosciences). Results were analyzed using FCAP array software. Proteins were quantified in supernatants by the bicinchoninic acid (BCA) method according to the manufacturer's instructions (Pierce). Cytokine concentrations were normalized to total protein concentration and expressed as picograms per milligram of total tissue protein.

[3] = tested on: bone marrow-derived macrophages (BMM); assay: Comparative gene-chip analysis of macrophages treated or not with soluble iron and LPS; settings: data not shown
Method: as §1
To further investigate whether iron load could influence macrophage activation, the inventors analyzed responses to TLR agonists. […] Increased iron levels in cultures promoted macrophage unresponsiveness to LPS both when it was added at the onset of cultures from primary bone marrow progenitors (day 0) or to cultures of almost completely differentiated cells (90% CD11b+ and F4/80+BMM; day 4) (data not shown). Thus, increased extracellular iron load impairs macrophage activation. To gain insight into the molecular mechanisms involved in iron load-dependent inhibition of macrophage inflammatory responses, the inventors performed comparative gene-chip analysis of macrophages treated or not with soluble iron (Fe-NTA, 60 μM) and subjected or not to LPS treatment. Venn diagram analysis from Affymetrix® microarray chips confirmed that the overall response to LPS differed between control (BMM) and iron-treated (Fe-BMM) macrophages (data not shown). Comparison Gene Ontology (GO) analysis was further performed to test the biological relevance of genes differing between these conditions.

[4] = tested on: bone marrow-derived macrophages (BMM); assay: Reactive oxygen species (ROS) assessment by DCFH fluorescence; settings: BMM differentiated with 10 or 20 μM FeCl3-NTA for 7 days, LPS 150 ng/mL 3 hours; vs control macrophages
Method: as §1
Bone-marrow derived macrophages (BMM) were stimulated by LPS (150 ng/ml) to induce ROS production. After 3 hours, BMM were washed with PBS and 5 μM dichlorodihydrofluorescein-diacetate (DCFH-DA) was added and incubated for 20 min at 37° C. Cells were washed again and taken to flow cytometer to ROS analysis. FeCl3-NTA was used as mentioned before and NaOH was used as vehicle.

[5] = 60 μM, LPS-Fe-BMM compared to LPS-BMM

In the case of FeCl3-nitrilotriacetate [Fe-NTA], the “CD86 up-regulation in response to TLR4 agonist (LPS)” value ([1]; BMM cultured with 20 or 60 μM iron, LPS 150 ng/mL overnight) is reported as “not able to up-regulate CD86”, the “CD86 up-regulation in response to TLR2 agonist (PGN)” value ([1]; BMM cultured with 20 or 60 μM iron, PGN overnight) is reported as “not able to up-regulate CD86” and the “CD86 up-regulation in response to TLR3 agonist (poly I:C)” value ([1]; BMM cultured with 20 or 60 μM iron, poly-IC overnight) is reported as “not able to up-regulate CD86”. For the same substance, the “macrophage differentiation (cell morphology, CD11b and F4/80 expression)” value ([1]; BMM differentiated with 20 μM and 60 μM, data not shown) was “not affected”, the “secretion of IL-6” value [2] was “impaired secretion” and the “secretion of MCP-1” value [2] was “impaired secretion”. For the same substance, the “secretion of TNF-α” value [2] was “impaired secretion”, the “genes implicated in inflammatory response” value [3, 5] was “downregulated” and the “genes involved in NF-κB responses” value [3, 5] was “down-regulated”. The “expression of genes involved in anti-oxidant responses” value ([3]; Fe-BMM compared to control cells) was “Increased expression”, the “expression of genes characterizing M1 or M2 phenotypes” value ([3]; increased extracellular iron levels) was “inhibited” and the “ROS responses to LPS stimulation” value [4] was “impaired”.
